Test results as given in patent publication US20100144779A1, “Marine Alkalod Makaluvamines and Derivatives Thereof” (THE UAB RESEARCH FOUNDATION, priority 2007, published 2010).

How the values were obtained:
Experiment in all cases: NCI60 cell line screen (SRB)
Format in all cases: cell-based, human
MCF-7 = settings: MCF-7, Breast Cancer, 48 h
Summary of the method: (§1)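 Drug, diluted from DMSO stock in medium with gentamicin, was tested at five concentrations for 48 h. Readout was SRB-stained cell protein at 515 nm.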

SW-620 = settings: SW-620, Colon Cancer, 48 h
Summary of the method: as §1

HCT-116 = settings: HCT-116, Colon Cancer, 48 h
Summary of the method: as §1

NCI-H226 = settings: NCI-H226, Non-Small Cell Lung Cancer, 48 h
Summary of the method: as §1

NCIH332M = settings: Non-Small Cell Lung Cancer, 48 h
Summary of the method: as §1

OVCAR4 = settings: OVCAR4, Ovarian Cancer, 48 h
Summary of the method: as §1

UACC-257 = settings: UACC-257, Melanoma, 48 h
Summary of the method: as §1

HCC-2998 = settings: HCC-2998, Colon Cancer, 48 h
Summary of the method: as §1

LOX IMVI = settings: Melanoma, 48 h
Summary of the method: as §1

SNB-19 = settings: SNB-19, CNS Cancer, 48 h
Summary of the method: as §1

MDA-MB-435 = settings: MDA-MB-435, Breast Cancer, 48 h
Summary of the method: as §1

HS 578T = settings: Breast Cancer, 48 h
Summary of the method: as §1

SF-539 = settings: SF-539, CNS Cancer, 48 h
Summary of the method: as §1

PC-3 = settings: PC-3, Prostate Cancer, 48 h
Summary of the method: as §1

UACC-62 = settings: UACC-62, Melanoma, 48 h
Summary of the method: as §1

NCI/ADR-RES = settings: Breast Cancer, 48 h
Summary of the method: as §1

SK-MEL-2 = settings: SK-MEL-2, Melanoma, 48 h
Summary of the method: as §1

NCI-H460 = settings: NCI-H460, Non-Small Cell Lung Cancer, 48 h
Summary of the method: as §1

MDA-MB-231/ATCC = settings: Breast Cancer, 48 h
Summary of the method: as §1

K-562 = settings: K-562, Leukemia, 48 h
Summary of the method: as §1

SK-MEL-5 = settings: SK-MEL-5, Melanoma, 48 h
Summary of the method: as §1

A498 = settings: A498, Renal Cancer, 48 h
Summary of the method: as §1

OVCAR3 = settings: OVCAR3, Ovarian Cancer, 48 h
Summary of the method: as §1

EKVX = settings: Non-Small Cell Lung Cancer, 48 h
Summary of the method: as §1

SK-OV-3 = settings: SK-OV-3, Ovarian Cancer, 48 h
Summary of the method: as §1

CNC1=CC2=NCCc3c[nH]c(c32)C1=O [Compound 4a] gave a GI50 (MCF-7) of 1.52 µM, a GI50 (SW-620) of 3.1 µM and a GI50 (HCT-116) of 2.94 µM. The GI50 (NCI-H226) was 11.1 µM, the GI50 (NCIH332M) was 2.89 µM and the GI50 (OVCAR4) was 1.08 µM. The GI50 (UACC-257) was 2 µM, the GI50 (HCC-2998) was 4.91 µM and the GI50 (LOX IMVI) was 3.43 µM. For the same compound, the GI50 (SNB-19) was 3.43 µM, the GI50 (MDA-MB-435) was 1.8 µM and the GI50 (HS 578T) was 10.2 µM. The GI50 (SF-539) was 2.39 µM, the GI50 (PC-3) was 3.61 µM and the GI50 (UACC-62) was 2.49 µM. The GI50 (NCI/ADR-RES) was 9.33 µM, the GI50 (SK-MEL-2) was 1.67 µM and the GI50 (NCI-H460) was 2.16 µM. For the same compound, the GI50 (MDA-MB-231/ATCC) was 3.13 µM, the GI50 (K-562) was 2.19 µM and the GI50 (SK-MEL-5) was 1.45 µM. For the same compound, the GI50 (A498) was 20.7 µM, the GI50 (OVCAR3) was 6.3 µM and the GI50 (EKVX) was 2.2 µM. The GI50 (SK-OV-3) was 18.7 µM.
Work on O=C(O)C(F)(F)F.O=C1C(NCCc2ccc3c(c2)OCO3)=CC2=NCCc3c[nH]c1c32 [Compound 6] yielded a GI50 (MCF-7; Homo sapiens, MCF7) of 1.21 µM, a GI50 (SW-620; Homo sapiens) of 3.44 µM and a GI50 (HCT-116; Homo sapiens) of 2.41 µM. The GI50 (NCI-H226; Homo sapiens) was 4.38 µM, the GI50 (NCIH332M; Homo sapiens, NCI-H332M) was 2.82 µM and the GI50 (OVCAR4; Homo sapiens, OVCAR-4) was 0.971 µM. The GI50 (UACC-257; Homo sapiens) was 2.97 µM, the GI50 (HCC-2998; Homo sapiens) was 1.56 µM and the GI50 (LOX IMVI; Homo sapiens) was 1.68 µM. For the same compound, the GI50 (SNB-19; Homo sapiens) was 3.29 µM, the GI50 (MDA-MB-435; Homo sapiens) was 1.89 µM and the GI50 (HS 578T; Homo sapiens) was 2.86 µM. The GI50 (SF-539; Homo sapiens) was 2.21 µM, the GI50 (PC-3; Homo sapiens) was 5.93 µM and the GI50 (UACC-62; Homo sapiens) was 2.32 µM. It also gave a GI50 (NCI/ADR-RES; Homo sapiens) of 1.76 µM, a GI50 (SK-MEL-2; Homo sapiens) of 5.82 µM and a GI50 (NCI-H460; Homo sapiens) of 1.01 µM. It also gave a GI50 (MDA-MB-231/ATCC; Homo sapiens) of 2.32 µM, a GI50 (K-562; Homo sapiens, K562) of 3.43 µM and a GI50 (SK-MEL-5; Homo sapiens) of 0.965 µM. The GI50 (A498; Homo sapiens) was 6.03 µM, the GI50 (OVCAR3; Homo sapiens, OVCAR-3) was 2.02 µM and the GI50 (EKVX; Homo sapiens) was 1.96 µM. For the same compound, the GI50 (SK-OV-3; Homo sapiens) was 9.7 µM.
Compound COc1ccc(CCNC2=CC3=NCCc4c[nH]c(c43)C2=O)cc1OC.O=C(O)C(F)(F)F [Compound 20] has a GI50 (MCF-7; Homo sapiens, MCF7) of 2.61 µM, a GI50 (SW-620; Homo sapiens) of 3.09 µM and a GI50 (HCT-116; Homo sapiens) of 2.4 µM. For the same compound, the GI50 (NCI-H226; Homo sapiens) was 1.06 µM, the GI50 (NCIH332M; Homo sapiens, NCI-H332M) was 2.84 µM and the GI50 (OVCAR4; Homo sapiens, OVCAR-4) was 1.16 µM. For the same compound, the GI50 (UACC-257; Homo sapiens) was 3.07 µM, the GI50 (HCC-2998; Homo sapiens) was 2.35 µM and the GI50 (LOX IMVI; Homo sapiens) was 2.34 µM. The GI50 (SNB-19; Homo sapiens) was 3.26 µM, the GI50 (MDA-MB-435; Homo sapiens) was 2.05 µM and the GI50 (HS 578T; Homo sapiens) was 5.04 µM. For the same compound, the GI50 (SF-539; Homo sapiens) was 3.28 µM, the GI50 (PC-3; Homo sapiens) was 7.62 µM and the GI50 (UACC-62; Homo sapiens) was 2.17 µM. For the same compound, the GI50 (NCI/ADR-RES; Homo sapiens) was 12.4 µM, the GI50 (SK-MEL-2; Homo sapiens) was 0.73 µM and the GI50 (NCI-H460; Homo sapiens) was 1.42 µM. The GI50 (MDA-MB-231/ATCC; Homo sapiens) was 3.21 µM, the GI50 (K-562; Homo sapiens, K562) was 16.9 µM and the GI50 (SK-MEL-5; Homo sapiens) was 1.33 µM. For the same compound, the GI50 (A498; Homo sapiens) was 7.24 µM, the GI50 (OVCAR3; Homo sapiens, OVCAR-3) was 1.61 µM and the GI50 (EKVX; Homo sapiens) was 3.08 µM. For the same compound, the GI50 (SK-OV-3; Homo sapiens) was 14.6 µM.
O=C(O)C(F)(F)F.O=C1C(NCc2ccc(F)cc2)=CC2=NCCc3c[nH]c1c32 [Compound 28] gave a GI50 (MCF-7; Homo sapiens, MCF7) of 0.16 µM, a GI50 (SW-620; Homo sapiens) of 1.82 µM and a GI50 (HCT-116; Homo sapiens) of 0.715 µM. It also gave a GI50 (NCI-H226; Homo sapiens) of 2.34 µM, a GI50 (NCIH332M; Homo sapiens, NCI-H332M) of 1.17 µM and a GI50 (OVCAR4; Homo sapiens, OVCAR-4) of 1.09 µM. It also gave a GI50 (UACC-257; Homo sapiens) of 0.189 µM, a GI50 (HCC-2998; Homo sapiens) of 2.7 µM and a GI50 (LOX IMVI; Homo sapiens) of 1.57 µM. For the same compound, the GI50 (SNB-19; Homo sapiens) was 1.79 µM, the GI50 (MDA-MB-435; Homo sapiens) was 1.75 µM and the GI50 (HS 578T; Homo sapiens) was 44 µM. For the same compound, the GI50 (SF-539; Homo sapiens) was 1.74 µM, the GI50 (PC-3; Homo sapiens) was 1.57 µM and the GI50 (UACC-62; Homo sapiens) was 1.56 µM. For the same compound, the GI50 (NCI/ADR-RES; Homo sapiens) was 3.11 µM, the GI50 (SK-MEL-2; Homo sapiens) was 4.53 µM and the GI50 (NCI-H460; Homo sapiens) was 0.816 µM. The GI50 (MDA-MB-231/ATCC; Homo sapiens) was 0.725 µM, the GI50 (K-562; Homo sapiens, K562) was 1.07 µM and the GI50 (SK-MEL-5; Homo sapiens) was 0.325 µM. It also gave a GI50 (A498; Homo sapiens) of 3.11 µM, a GI50 (OVCAR3; Homo sapiens, OVCAR-3) of 2.23 µM and a GI50 (EKVX; Homo sapiens) of 0.453 µM. For the same compound, the GI50 (SK-OV-3; Homo sapiens) was 3.15 µM.
In the case of O=C1C(NCc2ccccc2)=CC2=NCCc3c[nH]c1c32 [Compound 4c], the GI50 (MCF-7) is reported as 0.061 µM, the GI50 (SW-620) is reported as 1.07 µM and the GI50 (HCT-116) is reported as 0.306 µM. For the same compound, the GI50 (NCI-H226) was 5.45 µM, the GI50 (NCIH332M) was 0.628 µM and the GI50 (OVCAR4) was 0.624 µM. It also gave a GI50 (UACC-257) of 0.315 µM, a GI50 (HCC-2998) of 2.61 µM and a GI50 (LOX IMVI) of 1.81 µM. It also gave a GI50 (SNB-19) of 1.96 µM, a GI50 (MDA-MB-435) of 2.03 µM and a GI50 (HS 578T) of 5.2 µM. The GI50 (SF-539) was 1.91 µM, the GI50 (PC-3) was 1.54 µM and the GI50 (UACC-62) was 1.82 µM. The GI50 (NCI/ADR-RES) was 3.51 µM, the GI50 (SK-MEL-2) was 5.2 µM and the GI50 (NCI-H460) was 1.51 µM. It also gave a GI50 (MDA-MB-231/ATCC) of 0.439 µM, a GI50 (K-562) of 2.36 µM and a GI50 (SK-MEL-5) of 0.462 µM. The GI50 (A498) was 16.5 µM, the GI50 (OVCAR3) was 2.58 µM and the GI50 (EKVX) was 0.271 µM. For the same compound, the GI50 (SK-OV-3) was 7.01 µM.
